These results are taken from US20220204491A1, “FXR (NR1H4) MODULATING COMPOUNDS” (Gilead Sciences, Inc., priority 2019, published 2022).

Data set [1] has as its target T1, human FXR alpha ligand binding domain (LBD) (Homo sapiens, UniProt Q96RI1).
T1 construct: made in house; host or cells: E. coli BL21(DE3), vector pDEST15
T1 sequence (Q96RI1 187-472 isoform Q96RI1-2): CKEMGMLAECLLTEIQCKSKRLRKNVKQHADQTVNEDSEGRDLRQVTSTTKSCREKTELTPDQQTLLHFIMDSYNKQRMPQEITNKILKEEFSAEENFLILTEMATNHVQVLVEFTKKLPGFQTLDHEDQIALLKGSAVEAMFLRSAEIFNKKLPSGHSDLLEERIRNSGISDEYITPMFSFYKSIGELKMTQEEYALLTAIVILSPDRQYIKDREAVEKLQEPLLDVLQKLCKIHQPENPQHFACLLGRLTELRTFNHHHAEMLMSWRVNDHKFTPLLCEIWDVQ
Briefly: FRET activity assay (FXR-LBD / SRC-1 cofactor peptide interaction, LANCE). Type of data set: biochemical. The following applies: GST-FXR-LBD, biotinylated SRC-1 peptide 676-700. The method, then:
Determination of a ligand mediated cofactor peptide interaction to quantify ligand binding to the nuclear receptor FXR was performed as follows.
Preparation of human FXR alpha ligand binding domain (LBD): The human FXRalpha LBD was expressed in E. coli strain BL21(DE3) as an N-terminally GST tagged fusion protein. The DNA encoding the FXR ligand binding domain was cloned into vector pDEST15 (Invitrogen). Expression was under control of an IPTG inducible T7 promoter. The amino acid boundaries of the ligand binding domain were amino acids 187-472 of Database entry NM 005123 (RefSeq). Expression and purification of the FXR-LBD: An overnight preculture of a transformed E. coli strain was diluted 1:20 in LB-Ampicillin medium and grown at 30° C. to an optical density of OD600=0.4−0.6. Gene expression was then induced by addition of 0.5 mM IPTG. Cells were incubated an additional 6 h at 30° C., 180 rpm. Cells were collected by centrifugation (7000×g, 7 minutes, room temperature). […] The protein was analysed by SDS-Page.
The method measures the ability of putative ligands to modulate the interaction between the purified bacterially expressed FXR ligand binding domain (LBD) and a synthetic biotinylated peptide based on residues 676-700 of SRC-1 (LCD2, 676-700). […] The ligand binding domain (LBD) of FXR was expressed as fusion protein with GST in BL-21 cells using the vector pDEST15. […] For ease of handling and reduction of background from compound fluorescence LANCE technology makes use of generic fluorophore labels and time resolved detection Assays were done in a final volume of 25 μL in a 384 well plate, in a Tris-based buffer (20 mM Tris-HCl pH 7.5; 60 mM KCl, 5 mM MgCl2; 35 ng/μL BSA), containing 20-60 ng/well recombinantly expressed FXR-LBD fused to GST, 200-600 nM N-terminally biotinylated peptide, representing SRC1 aminoacids 676-700, 200 ng/well Streptavidin-xlAPC conjugate (Prozyme) and 6-10 ng/well Eu W1024-antiGST (Perkin Elmer). […] The LANCE signal was detected by a Perkin Elmer VICTOR2VTM Multilabel Counter. […]
(TR-FRET usually uses a lanthanide donor and a delayed reading to cut background.)

In a further data set the target is T2, CYP2B6 (Homo sapiens, UniProt P20813).
T2 construct: from tissue; host or cells: human liver microsomes
T2 sequence (P20813 1-491): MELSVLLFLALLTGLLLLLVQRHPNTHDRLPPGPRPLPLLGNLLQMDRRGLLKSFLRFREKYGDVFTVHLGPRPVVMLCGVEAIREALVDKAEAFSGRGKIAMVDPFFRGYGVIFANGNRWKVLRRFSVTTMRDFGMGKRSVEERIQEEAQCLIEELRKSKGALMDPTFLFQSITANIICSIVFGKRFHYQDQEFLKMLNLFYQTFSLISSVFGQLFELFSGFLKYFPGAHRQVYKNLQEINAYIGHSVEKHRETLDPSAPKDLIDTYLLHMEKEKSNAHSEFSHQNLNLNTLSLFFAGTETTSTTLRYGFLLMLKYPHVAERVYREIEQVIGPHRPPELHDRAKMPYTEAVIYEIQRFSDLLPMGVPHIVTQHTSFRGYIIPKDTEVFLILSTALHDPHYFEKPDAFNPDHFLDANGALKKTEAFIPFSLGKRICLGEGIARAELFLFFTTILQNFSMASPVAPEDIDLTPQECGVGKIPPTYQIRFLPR
Briefly: CYP2B6 inhibition in human liver microsomes (bupropion probe). The following applies: human liver microsomes 0.1 mg/mL, bupropion 110 μM, 0.1-25 μM compound. In kind it is in vitro ADME. The method, then: The compound of Formula (I) (Example 1) was assessed for CYP2C8, CYP3A4, and CYP2B6 inhibition and was compared against Comparative Example 1.
Six test compound concentrations (0.1, 0.25, 1, 2.5, 10, 25 μM in DMSO; final DMSO concentration 0.3%) are incubated with human liver microsomes (0.1 mg/mL) and NADPH (1 mM) in the presence of the probe substrate bupropion (110 μM) for 5 min at 37° C. The selective CYP2B6 inhibitor, ticlopidine, is screened alongside the test compounds as a positive control.
For each of the CYP2B6, CYP2C8, and CYP3A4 incubations, the reactions were terminated by methanol addition. The samples were then centrifuged and analyzed by LC-MS/MS. Formic acid in deionised water (final concentration 0.1%) containing internal standard was added to the final sample prior to analysis. A decrease in the formation of the metabolites compared to vehicle control was used to calculate IC50.
Background: Liver microsomes are a subcellular fraction often used to study metabolism.

In data set [1], `O=C(O)c1cnc(N2CC(O)(c3ccc(OCc4c(-c5c(Cl)cc(F)cc5Cl)noc4C4CC4)cc3Cl)C2)c(F)c1` [Comparative Example 1, 6-(3-(2-chloro-4-((5-cyclopropyl-3-(2,6-dichloro-4-fluorophenyl)isoxazol-4-yl)methoxy)phenyl)-3-hydroxyazetidin-1-yl)-5-fluoronicotinic acid] had an EC50 of 7.5 nM. The CYP2B6 inhibition result on CYP2B6 was “inhibited CYP2B6”.

For the compound `O=C(O)c1ccc(N2CC(O)(c3ccc(OCc4c(-c5c(Cl)cccc5Cl)noc4C4CC4)cc3Cl)C2)nc1` [Comparative Example 2], the EC50 in data set [1] stood at 3.4 nM.

As to `O=C(O)c1ccc(N2CC(O)(c3ccc(OCc4c(-c5c(Cl)cc(F)cc5Cl)noc4C4CC4)cc3Cl)C2)nc1` [Example 1, 6-(3-(2-chloro-4-((5-cyclopropyl-3-(2,6-dichloro-4-fluorophenyl)isoxazol-4-yl)methoxy)phenyl)-3-hydroxyazetidin-1-yl)nicotinic acid], the EC50 in data set [1] amounted to 14.2 nM. The CYP2B6 inhibition result on CYP2B6 was “did not inhibit CYP2B6”.

One may read the EC50 as the midpoint of the concentration-response curve. Low values mean greater potency, high ones weaker potency.
